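Five compound concentrations were applied to cells in 96-well plates for 48 hours; endpoints were derived by simple linear interpolation of the resulting dose-response curve. GI50: concentration for 50% inhibition of growth.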 Calls of active or inactive are those of the source. No stated cut-off is given here; in the data, active = GI50 up to about 1.1 µM and inactive = higher.
Legend:
Experiment in all cases: NCI-60 cell line screen, 48 h
OVCAR-4 = tested on: OVCAR-4
ACHN = tested on: ACHN
MDA-MB-435 = tested on: MDA-MB-435
M14 = tested on: M14
UO-31 = tested on: UO-31
SK-MEL-28 = tested on: SK-MEL-28
SK-OV-3 = tested on: SK-OV-3
TK-10 = tested on: TK-10
A498 = tested on: A498
NCI-H226 = tested on: NCI-H226
NCI-H23 = tested on: NCI-H23
IGROV-1 = tested on: IGROV-1
EKVX = tested on: EKVX
HCT-15 = tested on: HCT-15
SNB-19 = tested on: SNB-19
NCI-H460 = tested on: NCI-H460
SK-MEL-5 = tested on: SK-MEL-5
MDA-N = tested on: MDA-N
SNB-75 = tested on: SNB-75

| Compound | GI50 (OVCAR-4) | GI50 (ACHN) | GI50 (MDA-MB-435) | GI50 (M14) | GI50 (UO-31) | GI50 (SK-MEL-28) | GI50 (SK-OV-3) | GI50 (TK-10) | GI50 (A498) | GI50 (NCI-H226) | GI50 (NCI-H23) | GI50 (IGROV-1) | GI50 (EKVX) | GI50 (HCT-15) [µM] | GI50 (SNB-19) | GI50 (NCI-H460) | GI50 (SK-MEL-5) | GI50 (MDA-N) | GI50 (SNB-75) |
| --- | --- | --- | --- | --- | --- | --- | --- | --- | --- | --- | --- | --- | --- | --- | --- | --- | --- | --- | --- |
| CC1NC(C(=O)O)Cc2cc(O)c(O)cc21 (stereo unspecified) | > 100 µM (inactive) | > 100 µM (inactive) | > 100 µM (inactive) | > 100 µM (inactive) | > 100 µM (inactive) | > 100 µM (inactive) | > 100 µM (inactive) | > 100 µM (inactive) | > 100 µM (inactive) | > 100 µM (inactive) | > 100 µM (inactive) | > 100 µM (inactive) | > 100 µM (inactive) | > 100 | > 100 µM (inactive) | > 100 µM (inactive) | > 100 µM (inactive) | > 100 µM (inactive) | – |
| CC[C@@H](O)C[C@H]1CCC[C@@]2(C[C@@H]3OC(=O)/C=C/[C@@](C)(O)[C@@H](O)[C@H](C)[C@@H](O)[C@H](OC4CCC(N(C)C)C(C)O4)[C@@H](O)[C@](C)(O)CCCCC/C=C/[C@@H]4CC(C)(C)O[C@@]4(O)C[C@H](O2)[C@H]3C)O1 (stereo partly specified) | 5.2 µM (inactive) | < 0.01 µM (active) | 0.927 µM (active) | 1.85 µM (inactive) | < 0.0388 µM (active) | 15.8 µM (inactive) | 14.6 µM (inactive) | – | 19.9 µM (inactive) | – | < 0.01 µM (active) | 6.44 µM (inactive) | < 0.01 µM (active) | 11.5 | – | 4.23 µM (inactive) | < 0.01 µM (active) | 2.96 µM (inactive) | – |
| CC1(C)CCOC(=O)C(Cl)CC1Cl (stereo unspecified) | > 100 µM (inactive) | > 100 µM (inactive) | > 100 µM (inactive) | > 100 µM (inactive) | – | > 100 µM (inactive) | > 100 µM (inactive) | > 100 µM (inactive) | > 100 µM (inactive) | > 100 µM (inactive) | > 100 µM (inactive) | > 100 µM (inactive) | > 100 µM (inactive) | > 100 | > 100 µM (inactive) | > 100 µM (inactive) | > 100 µM (inactive) | > 100 µM (inactive) | – |
| Cc1cccc(/C(Br)=C2/OC(=O)c3ccccc32)c1 | > 100 µM (inactive) | > 100 µM (inactive) | > 100 µM (inactive) | > 100 µM (inactive) | – | > 100 µM (inactive) | > 100 µM (inactive) | > 100 µM (inactive) | > 100 µM (inactive) | – | > 100 µM (inactive) | > 100 µM (inactive) | > 100 µM (inactive) | > 100 | – | > 100 µM (inactive) | > 100 µM (inactive) | > 100 µM (inactive) | > 100 µM (inactive) |
| Cc1ccc(C)c(NC(=O)C(Cc2c[nH]c3ccccc23)NC(=O)OCc2ccccc2)c1 (stereo unspecified) | 5.12 µM (inactive) | 22.9 µM (inactive) | 21.9 µM (inactive) | 13.6 µM (inactive) | 15.4 µM (inactive) | 25.8 µM (inactive) | 20.1 µM (inactive) | 15.3 µM (inactive) | 35.6 µM (inactive) | – | 21.3 µM (inactive) | 18.2 µM (inactive) | 14.5 µM (inactive) | 20.9 | 13.8 µM (inactive) | 13.7 µM (inactive) | 10.8 µM (inactive) | 29.3 µM (inactive) | 11.3 µM (inactive) |
| c1ccc(/N=C(\N2CCOCC2)N(CCN2CCOCC2)c2ccccc2)cc1 | > 100 µM (inactive) | – | > 100 µM (inactive) | > 100 µM (inactive) | 45.2 µM (inactive) | > 100 µM (inactive) | > 100 µM (inactive) | > 100 µM (inactive) | – | > 100 µM (inactive) | > 100 µM (inactive) | > 100 µM (inactive) | > 100 µM (inactive) | > 100 | > 100 µM (inactive) | > 100 µM (inactive) | > 100 µM (inactive) | > 100 µM (inactive) | > 100 µM (inactive) |

Reference: ChEMBL document CHEMBL1201862, “PubChem BioAssay data set” (2004)
